Laboratory results published in ChEMBL document CHEMBL3885861, “Open TG-GATES”.

Organism: Rattus norvegicus
Assay: Open TG-GATES - Regimen: Daily Repeat
Format: toxicity, organism-based, Sprague-Dawley
Design: regimen Daily Repeat, gender Male, age 6 weeks
Settings: in vivo, po, 0 mg/kg, route gavage, dose level Control; for APTT / Bas / Eos / Fbg / Hb / Ht / Lym / MCH / MCHC / MCV / Mono / Neu / PT / Plat / RBC / Ret / WBC: tissue Blood; for KIDNEY_L / KIDNEY_R / KIDNEY_TOTAL: tissue Kidney; for LIVER: tissue Liver; for A/G / ALP / ALT / AST / BUN / CRE / Ca / Cl / DBIL / GLC / IP / K / LDH / Na / PL / RALB / TBIL / TC / TG / TP / gamma-GTP: tissue Plasma

## CN(C)CCC(c1ccc(Cl)cc1)c1ccccn1 (configuration not stated) [CHLORPHENIRAMINE]
72 h, time 3 day
  TERMINAL_BW: 224.6 g
  APTT: 23.2 s
  Bas: 0%
  Eos: 1.2%
  Fbg: 295.2 mg/dL
  Hb: 13.4 g/dL
  Ht: 41.7%
  Lym: 77.6%
  MCH: 20.6 pg
  MCHC: 32.1%
  MCV: 64.2 fL
  Mono: 2.8%
  Neu: 17.4%
  PT: 14.5 s
  Plat: 127.5 x10_4/uL
  RBC: 650.8 x10_4/ul
  Ret: 6.9%
  WBC: 76.4 x10_2/uL
  KIDNEY_L: 0.9 g
  KIDNEY_R: 0.9 g
  KIDNEY_TOTAL: 1.9 g
  LIVER: 10.1 g
  A/G: 0.9
  ALP: 1824 IU/L
  ALT: 44.2 IU/L
  AST: 69.4 IU/L
  BUN: 14.6 mg/dL
  CRE: 0.2 mg/dL
  Ca: 10.5 mg/dL
  Cl: 107.2 meq/L
  DBIL: 0.014 mg/dL
  GLC: 182.4 mg/dL
  IP: 7.7 mg/dL
  K: 4.5 meq/L
  LDH: 109.4 IU/L
  Na: 142.2 meq/L
  PL: 151.6 mg/dL
  RALB: 2.7 g/dL
  TBIL: 0.034 mg/dL
  TC: 79 mg/dL
  TG: 87.8 mg/dL
  TP: 5.8 g/dL
  gamma-GTP: 1.4 IU/L
[…], time 7 day
  TERMINAL_BW: 265.1 g
  APTT: 18.7 s
  Bas: 0%
  Eos: 0.8%
  Fbg: 323.4 mg/dL
  Hb: 14 g/dL
  Ht: 43.3%
  Lym: 78.6%
  MCH: 20.5 pg
  MCHC: 32.4%
  MCV: 63.3 fL
  Mono: 2.8%
  Neu: 16.6%
  PT: 13.9 s
  Plat: 113.9 x10_4/uL
  RBC: 684.8 x10_4/ul
  Ret: 5.9%
  WBC: 83.1 x10_2/uL
  KIDNEY_L: 1 g
  KIDNEY_R: 1 g
  KIDNEY_TOTAL: 2.1 g
  LIVER: 12.2 g
  A/G: 0.8
  ALP: 1518.2 IU/L
  ALT: 43.2 IU/L
  AST: 65.8 IU/L
  BUN: 15.4 mg/dL
  CRE: 0.2 mg/dL
  Ca: 11.6 mg/dL
  Cl: 104.8 meq/L
  DBIL: 0.018 mg/dL
  GLC: 193.8 mg/dL
  IP: 8.1 mg/dL
  K: 4.2 meq/L
  LDH: 90.8 IU/L
  Na: 143.2 meq/L
  PL: 166.4 mg/dL
  RALB: 2.8 g/dL
  TBIL: 0.034 mg/dL
  TC: 86.6 mg/dL
  TG: 139.6 mg/dL
  TP: 6.1 g/dL
  gamma-GTP: 1 IU/L
[…], time 14 day
  TERMINAL_BW: 314.1 g
  APTT: 20.3 s
  Bas: 0.4%
  Eos: 1%
  Fbg: 308.2 mg/dL
  Hb: 14.8 g/dL
  Ht: 45.2%
  Lym: 76.8%
  MCH: 20.4 pg
  MCHC: 32.7%
  MCV: 62.2 fL
  Mono: 2.2%
  Neu: 18.8%
  PT: 14.5 s
  Plat: 111 x10_4/uL
  RBC: 727.2 x10_4/ul
  Ret: 3.8%
  WBC: 90.4 x10_2/uL
  KIDNEY_L: 1.1 g
  KIDNEY_R: 1.1 g
  KIDNEY_TOTAL: 2.2 g
  LIVER: 12.9 g
  A/G: 0.8
  ALP: 1632.2 IU/L
  ALT: 38.2 IU/L
  AST: 66.4 IU/L
  BUN: 15.6 mg/dL
  CRE: 0.2 mg/dL
  Ca: 10.9 mg/dL
  Cl: 106.4 meq/L
  DBIL: 0.016 mg/dL
  GLC: 187.2 mg/dL
  IP: 6.9 mg/dL
  K: 4.2 meq/L
  LDH: 77 IU/L
  Na: 143.4 meq/L
  PL: 153.4 mg/dL
  RALB: 2.8 g/dL
  TBIL: 0.038 mg/dL
  TC: 72.6 mg/dL
  TG: 126 mg/dL
  TP: 6.1 g/dL
  gamma-GTP: 1 IU/L
[…], time 28 day
  TERMINAL_BW: 409.3 g
  APTT: 17.8 s
  Bas: 0.2%
  Eos: 1.2%
  Fbg: 280.8 mg/dL
  Hb: 15.4 g/dL
  Ht: 45.7%
  Lym: 76.4%
  MCH: 18.9 pg
  MCHC: 33.7%
  MCV: 56.2 fL
  Mono: 2%
  Neu: 19.8%
  PT: 14.5 s
  Plat: 115.9 x10_4/uL
  RBC: 813.8 x10_4/ul
  Ret: 2.5%
  WBC: 96.5 x10_2/uL
  KIDNEY_L: 1.4 g
  KIDNEY_R: 1.4 g
  KIDNEY_TOTAL: 2.8 g
  LIVER: 17.3 g
  A/G: 0.8
  ALP: 1089.8 IU/L
  ALT: 37.2 IU/L
  AST: 60.4 IU/L
  BUN: 17.4 mg/dL
  CRE: 0.2 mg/dL
  Ca: 10.6 mg/dL
  Cl: 106.8 meq/L
  DBIL: 0.016 mg/dL
  GLC: 186.2 mg/dL
  IP: 6.3 mg/dL
  K: 4.2 meq/L
  LDH: 77.4 IU/L
  Na: 144.8 meq/L
  PL: 168.4 mg/dL
  RALB: 2.9 g/dL
  TBIL: 0.026 mg/dL
  TC: 79.6 mg/dL
  TG: 174 mg/dL
  TP: 6.4 g/dL
  gamma-GTP: 1 IU/L
